How the values were obtained:
[1] = test system: Fischer rats renal grafts from cardiac arrest donation; experiment: DCD renal graft preservation with xenon or argon with or without dexmedetomidine, then transplantation; assay type: in vivo, rat; settings: UW saturated with 70% gas, with or without Dex 0.1 nM; day 8 after transplantation
Protocol: Briefly, after intravenous heparinization (300 U) in 1 ml saline via the penile vein under 2% isoflurane anaesthesia, cardiac arrest was induced by cervical dislocation (schedule 1 killing). The cessation of the heart beat was observed within 3-5 minutes and donor animals were kept for 40 minutes on a 37° C. pad.
This protocol was obtained from our pilot studies and the both graft injury and a therapeutic window can be achieved. The preserving solution was saturated with 70% nitrogen, xenon or argon gas, combined with or without dexmedetomidine 0.1 nM [32]. […] Macrophage infiltration and renal fibrosis were attenuated by the treatments on day 16 after surgery (FIGS. 12A-12D).
With respect to FIGS. 10A-10D, Fischer rats renal grafts from cardiac arrest donation were stored with UW preserving solution at 4° C., saturated with nitrogen or xenon or argon gas (70% N2 or Xe or Ar and 5% CO2 balanced with O2 supplemented with Dex), machine perfused for 4 hours and stored until 24 hours. Normal kidney graft serves as naive control (NC), grafts treated with preserving solution only served as sham, and the grafts were then transplanted into Lewis recipient and finally harvested day 8 after transplantation. (FIG. 10A) Renal morphology were assessed by H and E staining (n=4-6) and (FIG. 10B) evaluated by the injury scoring system. (FIG. 10C) TUNEL staining of renal tubules in renal cortex. […]

[2] = test system: brain; settings: 70% argon; cited from earlier work
[3] = test system: renal grafts from live donor; settings: preserving solution saturated with argon; cited from earlier work
[4] = test system: ex vivo renal grafts from brain death or cardiac arrest donors; experiment: Rat hypothermic machine perfusion model; settings: exposure of ex vivo grafts prior to engraftment
[5] = test system: Lewis rat lung grafts extracted after cardiac death; experiment: DCD lung graft stored in Dex-saturated UW after donor treatment with Nrf-2 siRNA or atipamezole; settings: given to donor before extraction
Protocol: Nrf-2 siRNA or scrambled siRNAs (negative control) (QIAGEN®) were dissolved in siRNA suspension buffer and further diluted in RNase-free PBS before use. siRNA targeting rat Nrf-2 (sc-37030, SANTA CRUZ BIOTECHNOLOGY®, USA) was administered through hydrodynamic tail vein injection. Nrf-2 or scrambled siRNA ([…] in 10 ml of PBS) was rapidly injected (within 30 s) via a tail vein under anaesthesia and allow to recover for 24 h before the experiment. Atipamezole (α2-adrenergic antagonist, SIGMA-ALDRICH®, St. Louis, Mo., USA, 250 μg/kg, i.p.) was administered 10 minutes graft extraction.
In order to further investigate the mechanisms underlying the protective effects of dexmedetomidine on lung grafts, Nrf-2 siRNA and atipamezole treatment was administered donor before lung grafts extraction. The grafts were subsequently stored in Dex-saturated UW solution. TLR-4 and RIP3 immunofluorescent labelling was performed in lung grafts, with and without Nrf-2 siRNA (FIG. 9A), and with and without atipamezole treatment (FIG. 9B). […] 3-nitrotyrosine and 4-hydroxynonenal immunofluorescent labelling was performed in lung alveolar cells at CI 16 h, with and without Nrf-2 siRNA or with and without atipamezole treatment (FIGS. 9E and 9F) at CI 16 h. […] Together, these findings indicate that upregulation of the Nrf-2 and α2 adrenergic pathways are both critical to the protective effects of Dex on lung grafts. […] With respect to FIGS. 9A-9K, Lewis rat lung grafts were extracted after cardiac death and stored in 4° C. UW solution saturated with Dex (0.1 nM) or without Dex (Vehicle) for 16 hours (lung graft cold ischemia CIO 16 hr). Nrf-2 siRNA or atipamezole was given to the donor before graft extracting. Dual labelling of Rip-3 (red) and TLR-4 (green) in lung tissue after (FIG. 9A) SiRNA treatment or (FIG. 9B) atipamezole. Fluorescent intensity of (FIG. 9C) RIPK3 and (FIG. 9D) TLR-4 in lung tissue. The expression of 3-nitrotyrosine and 4-hydroxynonenal was assessed with immunofluorescent labelling after (FIG. 9E) SiRNA treatment or (FIG. 9F) Atipamezole. Fluorescent intensity of (FIG. 9G) 3-nitrotyrosine and (FIG. 9H) 4-hydroxynonenal. Nuclei were counterstained with 4′,6-diamidino-2-phenylindole (DAPI) (blue). (FIGS. 9I and 9K) Histology (haematoxylin and eosin staining) of the lung graft and injury score. (FIG. 9J) HMGB-1 in lung graft tissue, were assessed by ELISA. Scale bar: 50 μm. […] NC: naïve control, rCI: renal graft cold ischemia. HMGB, high mobility group box 1 protein; CI, cold ischaemia; NC, naïve control; TLR-4, toll-like receptor 4.

[6] = test system: kidney; settings: in vivo; cited from earlier work
[7] = test system: ex-vivo rat kidney; settings: cited from earlier work
[8] = test system: isografts, weak immune-allografts and strong immuno-allografts; settings: xenon to living donor before graft retrieval or to recipient after engraftment; cited from earlier work
[9] = ice-cold Soltran saturated with 70% Xe, 24 hrs, vs 70% N2

[Ar] [argon]
renal architecture during prolonged cold preservation (H&E injury score, TUNEL) [1]: preserved the renal architrave | neuroprotection [2]: neuro-protective | preservation of renal grafts against hypothermic-ischemic injury [3]: superior in preserving renal grafts | organ graft injury, histologically and functionally [4]: prevent organ graft injury

CCC1(c2cnc[nH]2)Cc2ccccc2C1 [atipamezole, Atipamezole]
3-nitrotyrosine expression (fluorescent intensity) ([5]; CI 16 h): significant increase | 4-hydroxynonenal expression (fluorescent intensity) ([5]; CI 16 h): significant increase | HMGB-1 expression in lung graft tissue (ELISA) ([5]; CI 16 hr): significantly increased | expression of RIP3 (fluorescent intensity) ([5]; CI 16 hr): enhanced expression | lung injury scoring ([5]; CI 16 hr): significant increase | lung morphology (H&E) ([5]; CI 16 hr): deteriorated significantly | expression of TLR-4 (fluorescent intensity) ([5]; CI 16 hr, p<0.01): enhanced expression

[Xe] [xenon]
renal architecture during prolonged cold preservation (H&E injury score, TUNEL) [1]: preserved the renal architrave | kidney warm ischemic injury [6]: protect against kidney warm ischemic injury | organ graft injury, histologically and functionally [4]: prevent organ graft injury | delayed graft function ([7]; after engraftment): reduced | renal inflammation ([7]; after engraftment): reduced | fibrosis ([7]; day 8 after surgery): significantly reduced | macrophage infiltration ([7]; day 8 after surgery): significantly reduced | expression of Bcl-2 [7, 9]: enhanced expression | expression of HSP-70 [7, 9]: enhanced expression | tubular cell death ([7]; twenty-four hrs after engraftment): significantly decreased | morphological structure of the ex-vivo rat kidney ([7]; xenon-containing Soltran solution): well preserved | early graft injury [8]: protected against early graft injury | graft survival [8]: prolonged graft survival
